Test results published in ChEMBL document CHEMBL1201862, “PubChem BioAssay data set” (2004).
The source made the active and inactive calls.

How the values were obtained:
[1] = molecular target: T1, High affinity choline transporter 1 (Homo sapiens, UniProt Q9GZV3); assay: CHT inhibitors, dose response, cell-based, 10-point CRC, membrane potential dye (AID 588401); assay type: functional;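 note: membrane potential dye fluorescence of choline-evoked depolarization via CHT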
T1 sequence (Q9GZV3 whole entry): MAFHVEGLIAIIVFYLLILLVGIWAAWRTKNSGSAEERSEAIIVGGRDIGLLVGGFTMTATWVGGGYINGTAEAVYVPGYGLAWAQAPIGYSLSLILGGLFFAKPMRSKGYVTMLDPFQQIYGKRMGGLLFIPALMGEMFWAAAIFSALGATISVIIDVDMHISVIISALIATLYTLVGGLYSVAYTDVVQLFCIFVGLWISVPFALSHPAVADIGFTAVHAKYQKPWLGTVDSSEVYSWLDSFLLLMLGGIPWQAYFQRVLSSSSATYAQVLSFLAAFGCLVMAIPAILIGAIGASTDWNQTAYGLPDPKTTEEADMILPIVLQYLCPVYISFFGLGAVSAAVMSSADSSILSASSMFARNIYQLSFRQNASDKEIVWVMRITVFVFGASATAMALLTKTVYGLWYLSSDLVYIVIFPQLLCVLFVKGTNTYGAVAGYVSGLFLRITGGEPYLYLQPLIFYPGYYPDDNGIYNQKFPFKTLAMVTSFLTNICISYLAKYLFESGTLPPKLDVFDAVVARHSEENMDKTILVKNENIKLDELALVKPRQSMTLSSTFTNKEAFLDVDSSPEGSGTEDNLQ

[2] = molecular target: T1, High affinity choline transporter 1; assay: CHT inhibitors, dose response, cell-based, 5-point CRC, membrane potential dye (AID 504840); assay type: functional
[3] = molecular target: Protein Wnt-3a (Mus musculus, UniProt P27467); assay: Wnt3a-driven reporter signaling inhibition, dose response, selectivity assay for Gli-SUFU antagonist project, Wnt-LIGHT cells, luminescence (AID 651570); assay type: functional; settings: read-out: IC50_Mean;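 note: Wnt-LIGHT reporter cells stimulated with conditioned medium from Wnt3a-producing cells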
Protein Wnt-3a, sequence (P27467 whole entry): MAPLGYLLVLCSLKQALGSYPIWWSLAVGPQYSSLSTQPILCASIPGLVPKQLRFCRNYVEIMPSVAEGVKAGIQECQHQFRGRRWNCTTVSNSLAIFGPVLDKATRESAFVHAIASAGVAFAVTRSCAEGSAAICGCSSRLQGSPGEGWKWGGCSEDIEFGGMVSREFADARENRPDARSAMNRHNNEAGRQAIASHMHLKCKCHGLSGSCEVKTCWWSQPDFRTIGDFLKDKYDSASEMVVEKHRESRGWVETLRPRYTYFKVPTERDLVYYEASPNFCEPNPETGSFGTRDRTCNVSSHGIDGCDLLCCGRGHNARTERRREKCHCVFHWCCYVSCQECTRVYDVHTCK

[4] = molecular target: T2, Protein RecA (Mycobacterium tuberculosis, UniProt P9WHJ3); assay: Fluorescence Cell-Free Homogeneous Dose Retest to Identify Inhibitors of RecA-Intein Splicing Activity. [Related pubchem assays (depositor defined):AID2097, AID2223, AID489010, AID492950]; assay type: functional
T2 sequence (P9WHJ3 whole entry): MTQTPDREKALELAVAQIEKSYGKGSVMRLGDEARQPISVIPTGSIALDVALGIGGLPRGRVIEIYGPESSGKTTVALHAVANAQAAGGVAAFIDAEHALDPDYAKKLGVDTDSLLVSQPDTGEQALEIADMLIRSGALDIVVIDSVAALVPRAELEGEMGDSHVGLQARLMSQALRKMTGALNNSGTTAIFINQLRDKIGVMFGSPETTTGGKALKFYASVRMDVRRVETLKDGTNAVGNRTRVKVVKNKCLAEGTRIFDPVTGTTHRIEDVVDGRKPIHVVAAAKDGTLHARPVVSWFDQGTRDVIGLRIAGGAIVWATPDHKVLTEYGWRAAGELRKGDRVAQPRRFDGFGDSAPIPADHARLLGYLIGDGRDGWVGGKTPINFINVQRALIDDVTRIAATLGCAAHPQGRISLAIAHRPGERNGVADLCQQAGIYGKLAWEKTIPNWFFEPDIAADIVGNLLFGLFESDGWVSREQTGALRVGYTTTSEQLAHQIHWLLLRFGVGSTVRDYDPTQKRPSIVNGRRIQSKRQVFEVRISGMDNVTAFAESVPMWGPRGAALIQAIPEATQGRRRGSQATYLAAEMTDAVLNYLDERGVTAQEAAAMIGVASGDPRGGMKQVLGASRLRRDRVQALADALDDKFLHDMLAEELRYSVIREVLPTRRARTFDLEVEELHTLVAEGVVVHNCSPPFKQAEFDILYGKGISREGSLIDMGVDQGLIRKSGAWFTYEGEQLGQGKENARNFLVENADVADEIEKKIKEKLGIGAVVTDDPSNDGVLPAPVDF

[5] = system: HEK293; assay: inhibitors of LMP1-driven NF-kB reporter, dose response, cell-based, HEK293, luciferase, cherry-pick (AID 588343); assay type: functional; settings: Homo sapiens
[6] = molecular target: T3, Replicative DNA helicase DnaB (Mycobacterium tuberculosis, UniProt P9WMR3); assay: DnaB intein splicing inhibitors, dose response, biochemical, cell-free fluorescence (AID 449749); assay type: functional
T3 sequence (P9WMR3 whole entry): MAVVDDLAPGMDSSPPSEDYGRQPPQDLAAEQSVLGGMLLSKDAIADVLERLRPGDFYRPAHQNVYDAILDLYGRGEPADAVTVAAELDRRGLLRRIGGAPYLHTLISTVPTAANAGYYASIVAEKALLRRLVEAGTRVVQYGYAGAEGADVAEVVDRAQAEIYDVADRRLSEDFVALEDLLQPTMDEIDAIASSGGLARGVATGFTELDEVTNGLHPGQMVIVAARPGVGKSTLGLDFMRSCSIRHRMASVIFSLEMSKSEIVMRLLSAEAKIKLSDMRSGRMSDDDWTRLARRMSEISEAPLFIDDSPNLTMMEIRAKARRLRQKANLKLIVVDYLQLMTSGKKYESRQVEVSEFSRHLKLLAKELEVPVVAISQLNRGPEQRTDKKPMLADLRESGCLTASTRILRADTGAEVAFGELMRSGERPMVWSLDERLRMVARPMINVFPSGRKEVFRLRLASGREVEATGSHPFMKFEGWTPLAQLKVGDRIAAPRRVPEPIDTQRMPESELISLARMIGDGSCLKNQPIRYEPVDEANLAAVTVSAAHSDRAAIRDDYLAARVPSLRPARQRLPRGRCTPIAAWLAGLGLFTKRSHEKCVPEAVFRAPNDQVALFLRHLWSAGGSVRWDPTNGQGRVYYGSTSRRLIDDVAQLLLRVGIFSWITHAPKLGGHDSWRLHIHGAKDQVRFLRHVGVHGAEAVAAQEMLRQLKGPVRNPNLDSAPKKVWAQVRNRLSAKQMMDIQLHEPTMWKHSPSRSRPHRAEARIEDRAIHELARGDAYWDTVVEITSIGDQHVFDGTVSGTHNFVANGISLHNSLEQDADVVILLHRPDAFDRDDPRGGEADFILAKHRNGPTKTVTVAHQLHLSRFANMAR

[7] = system: INS1; assay: beta cell apoptosis inhibitors, cytokine rescue, dose response, luminescence, retest (AID 449756); assay type: functional, cell-based; settings: Rattus norvegicus;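 note: cell death triggered by IL-1 beta plus TNF-alpha plus IFN-gamma mixture; protective hits raise ATP signal compared with cytokine alone wells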
[8] = HepG2 cell cytotoxicity, dose response, cytotoxicity control for Shn3 inhibitor project, CellTiter-Glo, cherry-picked (AID 624134); assay type: functional, cell-based
[9] = Shn3 3'UTR reporter inhibitors, dose response, cell-based, Clone20 osteoblasts, firefly luciferase, cherry-picked (AID 624132); assay type: functional;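 note: firefly luciferase luminescence from reporter carrying the Shn3 3'UTR in osteoblasts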
[10] = control 3'UTR Renilla luciferase suppression, dose response, counter-screen for Shn3 inhibitor project, cell-based, Clone20-Shn3RL, cherry-picked (AID 624133); assay type: functional
[11] = molecular target: 26S proteasome non-ATPase regulatory subunit 14 (Homo sapiens, UniProt O00487); assay: inhibition of proteasome subunit RPN11 – biochemical, fluorescence polarization, uHTS hits, confirmation (AID 602368); assay type: functional
26S proteasome non-ATPase regulatory subunit 14, sequence (O00487 whole entry): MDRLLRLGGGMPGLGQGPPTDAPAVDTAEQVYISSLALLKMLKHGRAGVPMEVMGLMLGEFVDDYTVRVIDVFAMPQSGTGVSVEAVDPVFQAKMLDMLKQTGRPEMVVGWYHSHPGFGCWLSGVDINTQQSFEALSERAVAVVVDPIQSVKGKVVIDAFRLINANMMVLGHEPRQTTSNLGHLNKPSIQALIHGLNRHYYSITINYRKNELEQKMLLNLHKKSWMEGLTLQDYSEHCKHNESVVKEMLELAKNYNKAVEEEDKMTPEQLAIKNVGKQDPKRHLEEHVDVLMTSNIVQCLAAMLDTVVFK

[12] = molecular target: 72 kDa type IV collagenase (Homo sapiens, UniProt P08253); assay: Dose Response validation of uHTS RPN11 inhibitor hits using a MMP-2 Fluorescence assay.; assay type: functional
72 kDa type IV collagenase, sequence (P08253 whole entry): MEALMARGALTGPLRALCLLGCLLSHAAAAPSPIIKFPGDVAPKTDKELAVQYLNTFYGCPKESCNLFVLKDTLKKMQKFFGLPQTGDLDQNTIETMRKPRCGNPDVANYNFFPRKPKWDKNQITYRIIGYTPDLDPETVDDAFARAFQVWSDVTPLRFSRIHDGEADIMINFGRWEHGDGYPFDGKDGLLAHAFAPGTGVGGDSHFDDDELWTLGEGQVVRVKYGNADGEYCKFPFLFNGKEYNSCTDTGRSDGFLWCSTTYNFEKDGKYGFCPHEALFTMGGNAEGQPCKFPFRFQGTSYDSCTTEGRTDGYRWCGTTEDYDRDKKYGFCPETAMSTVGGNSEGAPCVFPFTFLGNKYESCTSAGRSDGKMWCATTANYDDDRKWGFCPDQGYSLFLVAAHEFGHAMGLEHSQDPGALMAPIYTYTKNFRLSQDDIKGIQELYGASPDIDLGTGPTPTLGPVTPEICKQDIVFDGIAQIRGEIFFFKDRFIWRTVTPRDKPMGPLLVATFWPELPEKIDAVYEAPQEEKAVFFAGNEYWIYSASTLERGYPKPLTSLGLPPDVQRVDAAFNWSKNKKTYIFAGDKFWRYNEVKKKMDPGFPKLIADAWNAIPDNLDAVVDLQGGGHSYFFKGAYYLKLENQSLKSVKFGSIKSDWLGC

[13] = molecular target: Prothrombin (Bos taurus, UniProt P00735); assay: thrombin inhibition, dose response, biochemical, fluorescence polarization, uHTS hits (AID 602369); assay type: functional
[14] = molecular target: T4, Melanocortin receptor 4 (Homo sapiens, UniProt P32245); assay type: functional, cell-based;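 note: Cell-based assay with luminescence read-out, confirmatory dose-response testing for agonist activity of biased ligands at MC4R; human U2OS cells with tagged receptor and beta-arrestin; potency of agonists that increase receptor coupling to beta-arrestin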
T4 sequence (P32245 whole entry): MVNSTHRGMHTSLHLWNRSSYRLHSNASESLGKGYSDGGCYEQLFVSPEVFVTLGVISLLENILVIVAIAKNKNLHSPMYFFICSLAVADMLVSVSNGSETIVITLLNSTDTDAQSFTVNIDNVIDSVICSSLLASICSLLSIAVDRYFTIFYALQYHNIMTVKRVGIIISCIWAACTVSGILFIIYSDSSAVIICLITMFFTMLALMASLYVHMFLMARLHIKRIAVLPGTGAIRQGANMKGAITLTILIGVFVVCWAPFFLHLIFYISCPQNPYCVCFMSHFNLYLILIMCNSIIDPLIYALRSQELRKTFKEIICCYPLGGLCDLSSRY

[15] = molecular target: T5, Endoribonuclease toxin MazF (Escherichia coli K-12, UniProt P0AE70); assay: MazF toxin RNase activators, dose response, biochemical, fluorescence, single-stranded RNA substrate, uHTS hits (AID 588481); assay type: functional
T5 sequence (P0AE70 whole entry): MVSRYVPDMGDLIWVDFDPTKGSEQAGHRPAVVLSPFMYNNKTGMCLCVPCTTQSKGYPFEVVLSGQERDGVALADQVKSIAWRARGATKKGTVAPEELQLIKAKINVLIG

[16] = molecular target: T5, Endoribonuclease toxin MazF; assay: fluorescent RNA oligo signal without MazF, dose response, counter-screen for MazEF activator project, biochemical, fluorescence, single-stranded RNase substrate (AID 588502); assay type: functional
[17] = inhibitors of intracellular T. cruzi replication, confirmation, NIH3T3 host cells, beta-gal luminescence (AID 2044); assay type: functional, cell-based;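 note: intracellular parasites grown in NIH/3T3 mouse fibroblasts as host cells; luminescent beta-galactosidase reporter signal from transgenic T. cruzi replicating inside host cells; inhibitors lower the luminescence signal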
[18] = cytotoxicity toward NIH3T3 fibroblasts, dose response, counter-screen, cell-based, ATP luminescence, mouse fibroblasts (AID 2010); assay type: functional;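 note: cells exposed to compound for about 90 hours before reading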
[19] = molecular target: T4, Melanocortin receptor 4; assay: MC4R antagonist potency on cAMP, dose response, cell-based, TR-FRET, biased antagonists (AID 602298); assay type: functional;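 note: antagonist potency against agonist-stimulated cAMP production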
[20] = molecular target: T6, Carboxy-terminal domain RNA polymerase II polypeptide A small phosphatase 1 (Homo sapiens, UniProt Q9GZU7); assay: inhibitors of CTDSP1, concentration-response testing, biochemical assay, absorbance-based, actives from ultra-high-throughput screening (AID 540297); assay type: functional
T6 sequence (Q9GZU7 whole entry): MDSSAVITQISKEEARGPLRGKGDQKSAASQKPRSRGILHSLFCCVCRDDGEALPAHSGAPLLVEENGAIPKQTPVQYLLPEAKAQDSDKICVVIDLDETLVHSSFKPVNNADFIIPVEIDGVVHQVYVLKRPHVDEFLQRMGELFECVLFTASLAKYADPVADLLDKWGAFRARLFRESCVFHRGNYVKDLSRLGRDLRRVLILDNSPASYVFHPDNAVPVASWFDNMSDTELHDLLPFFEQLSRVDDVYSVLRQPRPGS

[21] = nonselective inhibitors of cellular cAMP signaling, dose response, counter-screen for MC4R biased antagonist project, cell-based, TR-FRET cAMP detection (AID 602305); assay type: functional;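 note: U2OS cells stimulated with forskolin near its EC80 as the cAMP inducer; potency is for inhibition of forskolin-stimulated cAMP signaling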
[22] = intracellular Trypanosoma cruzi inhibitors in host cells – cell-based, plate reader, cherry-pick samples, set 3, dose response (AID 651818); assay type: functional;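 note: compounds incubated with infected cells for about four days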
[23] = molecular target: T7, Mitochondrial peptide methionine sulfoxide reductase (Bos taurus, UniProt P54149); assay type: functional;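 note: absorbance read-out, biochemical high-throughput dose-response screen for MsrA inhibitors, confirmatory; recombinant bovine MsrA coupled to E. coli TrxB with NADPH and selenocystamine; potency is for inhibitors of MsrA activity on DMSO substrate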
T7 sequence (P54149 whole entry): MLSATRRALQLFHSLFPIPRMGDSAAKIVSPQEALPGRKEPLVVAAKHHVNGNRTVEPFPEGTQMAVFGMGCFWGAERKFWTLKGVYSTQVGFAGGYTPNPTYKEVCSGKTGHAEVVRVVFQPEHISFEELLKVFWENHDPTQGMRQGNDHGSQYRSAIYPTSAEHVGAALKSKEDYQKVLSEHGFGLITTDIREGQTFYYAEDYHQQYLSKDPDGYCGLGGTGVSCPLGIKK

## CCCn1c2ccccc2c2cnn(CC(=O)NCCCN3CCN(c4ccccc4)CC3)c(=O)c21
[1]
  IC50: 2.84 µM (active)
[2]
  IC50: 2.49 µM (active)

## Cn1c(=O)c2c(nc(NCc3ccco3)n2Cc2ccc(Cl)cc2Cl)n(C)c1=O
[3]
  IC50: 1.94 µM (active)

## Cc1cc(C)n(-c2ccc(NN=C(C#N)C#N)cc2)n1
[4]
  EC50: 9.25 µM (active)
[5]
  AC50: 1.82 µM (active)
[6]
  AC50: 5.45 µM (active)

## CCOC(=O)N1CCC(NC(=O)C2CCCN(Cc3nc(-c4cccc(Cl)c4)oc3C)C2)CC1 (configuration not stated)
[7]
  AC50: 3.71 µM (active)
[5]
  AC50: 2.51 µM (active)
[8]
  AC50: 55.4 µM (active)
[2]
  IC50: 6.92 µM (active)
[9]
  AC50: 9.5 µM (active)
[10]
  AC50: 1.81 µM (active)

## C[C@]12CCC[C@H](O1)c1c(cc3c(c1O)C(=O)c1c(O)cc(O)cc1C3=O)O2
[11]
  IC50: 2.94 µM (active)
[12]
  IC50: 78.4 µM (active)
[13]
  IC50: 4.81 µM (active)

## O=C1OC(c2ccccc2)(c2cc(Br)ccc2O)c2ccccc21 (configuration not stated)
[14]
  EC50: > 89.2 µM (inactive)

## CCc1cccc(CC)c1NC(=O)c1cccc(S(=O)(=O)N2CCN(C)CC2)c1
[1]
  IC50: 8.43 µM (active)
[2]
  IC50: 7.52 µM (active)

## Nc1cc(SCc2ccc(Cl)cc2Cl)ncn1
[15]
  EC50: > 99 µM (inactive)
[16]
  EC50: > 99 µM (inactive)

## COc1ccc(Nc2nc3ccc(C)cc3cc2C#N)c(OC)c1
[15]
  EC50: 34.1 µM (inactive)
[16]
  EC50: 14.2 µM (active)

## COc1ccccc1Cc1c(-c2cccc(Br)c2)nc2ccc(Cl)cn12
[11]
  IC50: 8.48 µM (active)
[12]
  IC50: > 100 µM (inactive)
[13]
  IC50: 13 µM (active)

## O=C1OC(c2ccccc2)(c2ccc(O)cc2)c2ccccc21 (configuration not stated)
[14]
  EC50: > 89.2 µM (inactive)

## CCn1/c(=N\C(=O)CS(=O)(=O)c2ccccc2)sc2cccc(OC)c21
[8]
  AC50: > 70 µM (inactive)
[9]
  AC50: 1.68 µM (active)
[10]
  AC50: 1.58 µM (active)
[17]
  EC50: 1.74 µM (active)
[3]
  IC50: 1.03 µM (active)
[18]
  EC50: > 60 µM (not active)

## C=CCn1/c(=N/C(=O)c2sc3ccccc3c2Cl)sc2cc(S(N)(=O)=O)ccc21
[19]
  IC50: 30.7 µM (inactive)
[11]
  IC50: 12.5 µM (active)
[20]
  IC50: 4.39 µM (active)
[12]
  IC50: > 100 µM (inactive)
[13]
  IC50: > 100 µM (inactive)
[21]
  IC50: > 64.6 µM (inactive)

## Cc1cc(O)cc(O)c1/C=N/Cc1ccco1
[15]
  EC50: > 99 µM (inactive)
[16]
  EC50: 21.9 µM (inactive)

## CC(C)NC(=O)Nc1cccc2c1O[C@H](CN(C)Cc1ccc(C(=O)Nc3ccccc3N)cc1)[C@H](C)CN([C@@H](C)CO)C2=O
[22]
  AC50: 2.95 µM (active)

## C/C(CC(C)C)=N/Nc1ccc([N+](=O)[O-])cc1[N+](=O)[O-]
[23]
  IC50: 155 µM (inactive)
